US20210276987A1, “PHARMACEUTICAL AGENTS FOR USE IN SMOKING AND TOBACCO CESSATION” (Washington State University, priority 2018, published 2021)
pIC50: −log10 of the molar value. Structures can show the parent of a compound that is named as a salt. Where two headings read alike, the source gives them in different places.

Tests used:
UGT2B10 = target: T1, UGT2B10 (Homo sapiens, UniProt P36537); assay: biochemical; conditions: for pIC50: IC50 against UGT2B10; for IC50: IC50 against UGT2B10 (μM)
T1 sequence (P36537 24-528): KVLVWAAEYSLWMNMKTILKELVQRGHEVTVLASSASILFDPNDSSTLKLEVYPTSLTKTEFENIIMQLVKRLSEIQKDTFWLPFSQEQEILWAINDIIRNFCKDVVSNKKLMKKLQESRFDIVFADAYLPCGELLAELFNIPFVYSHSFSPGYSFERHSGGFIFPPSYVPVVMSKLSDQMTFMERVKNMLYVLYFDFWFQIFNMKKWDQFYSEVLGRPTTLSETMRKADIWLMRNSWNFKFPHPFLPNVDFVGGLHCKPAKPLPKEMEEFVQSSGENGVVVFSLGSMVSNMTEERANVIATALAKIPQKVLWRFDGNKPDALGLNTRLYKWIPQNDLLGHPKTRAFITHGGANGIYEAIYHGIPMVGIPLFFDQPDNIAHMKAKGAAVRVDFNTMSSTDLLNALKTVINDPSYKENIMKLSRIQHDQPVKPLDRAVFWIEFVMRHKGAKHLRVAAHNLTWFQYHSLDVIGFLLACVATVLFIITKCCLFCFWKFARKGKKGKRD
Description: Initial screening assays were performed as described above for the CYP assays using 1 μM or 10 μM of each of the NAs. The inhibitory effects of each agent against UGT2B10 was performed using the known UGT2B10-specific probe substrate, nicotine, in pooled human liver microsomes. […] Pre-incubations containing 500 μM nicotine and 1 or 10 μM NA were subsequently performed at 37° C. in 50 mM Tris-HCl buffer (pH 7.5, in a final volume of 50 μL) and 10 mM MgCl2 for 5 minutes.

CYP2A6 [1] = target: T2, CYP2A6 (Homo sapiens, UniProt P11509); conditions: for pIC50: both, human, microsomes, pH 7.4
T2 sequence (P11509 1-494): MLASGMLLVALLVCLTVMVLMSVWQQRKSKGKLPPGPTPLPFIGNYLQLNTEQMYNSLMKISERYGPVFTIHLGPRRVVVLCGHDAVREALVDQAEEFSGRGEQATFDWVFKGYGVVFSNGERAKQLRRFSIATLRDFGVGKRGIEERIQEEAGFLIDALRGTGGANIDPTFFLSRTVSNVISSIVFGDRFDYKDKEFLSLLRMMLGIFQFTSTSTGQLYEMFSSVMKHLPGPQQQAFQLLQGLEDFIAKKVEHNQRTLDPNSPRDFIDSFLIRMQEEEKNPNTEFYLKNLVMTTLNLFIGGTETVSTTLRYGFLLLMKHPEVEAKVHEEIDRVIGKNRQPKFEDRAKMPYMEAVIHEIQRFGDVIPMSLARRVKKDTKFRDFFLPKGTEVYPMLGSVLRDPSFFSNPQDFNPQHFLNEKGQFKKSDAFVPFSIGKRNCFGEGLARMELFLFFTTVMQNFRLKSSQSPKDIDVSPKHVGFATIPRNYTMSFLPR

CYP2A6 [2] = target: T2, CYP2A6; assay: biochemical; conditions: for pIC50: IC50 against CYP2A6; for IC50: IC50 against CYP2A6 (μM), Table 5, alkyne linker agents, pooled human liver microsomes, coumarin […]
in vitro = conditions: for T1/2 (min) in human liver microsomes / half-life (T1/2) in human liver microsomes: pH 7.4; for half-life at 10 μM: human, microsomes
Description: In vitro stability studies. […] Half-lives were calculated using the one-phase exponential decay equation (GraphPad).

CYP2A6 [3] = target: T2, CYP2A6; assay: in vitro; conditions: both, microsomes, pH 7.4, IC50 against CYP2A6 (μM)
[4] = tested on: CYPs 1A2, 2B6, 2C8, 2C9, 2C19, 2D6, 2E1 and 3A4
CYP2B6 = target: T3, CYP2B6 (Homo sapiens, UniProt P20813); conditions: Table 6
T3 sequence (P20813 1-491): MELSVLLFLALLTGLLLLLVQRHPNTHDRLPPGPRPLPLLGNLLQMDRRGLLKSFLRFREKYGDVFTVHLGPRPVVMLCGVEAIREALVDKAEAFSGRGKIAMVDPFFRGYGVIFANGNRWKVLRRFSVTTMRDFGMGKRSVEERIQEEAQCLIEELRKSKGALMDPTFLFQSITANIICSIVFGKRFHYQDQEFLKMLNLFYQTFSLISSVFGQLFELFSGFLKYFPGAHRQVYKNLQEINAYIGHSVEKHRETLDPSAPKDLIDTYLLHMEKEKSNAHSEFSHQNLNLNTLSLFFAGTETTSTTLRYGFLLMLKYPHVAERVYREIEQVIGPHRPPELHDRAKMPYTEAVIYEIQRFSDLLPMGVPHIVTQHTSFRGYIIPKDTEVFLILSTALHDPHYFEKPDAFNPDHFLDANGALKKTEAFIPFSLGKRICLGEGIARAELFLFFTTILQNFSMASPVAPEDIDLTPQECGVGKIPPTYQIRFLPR

CYP2E1 = CYP2E1 (Homo sapiens, UniProt P05181); conditions: Table 6
CYP2E1, sequence (P05181 whole entry): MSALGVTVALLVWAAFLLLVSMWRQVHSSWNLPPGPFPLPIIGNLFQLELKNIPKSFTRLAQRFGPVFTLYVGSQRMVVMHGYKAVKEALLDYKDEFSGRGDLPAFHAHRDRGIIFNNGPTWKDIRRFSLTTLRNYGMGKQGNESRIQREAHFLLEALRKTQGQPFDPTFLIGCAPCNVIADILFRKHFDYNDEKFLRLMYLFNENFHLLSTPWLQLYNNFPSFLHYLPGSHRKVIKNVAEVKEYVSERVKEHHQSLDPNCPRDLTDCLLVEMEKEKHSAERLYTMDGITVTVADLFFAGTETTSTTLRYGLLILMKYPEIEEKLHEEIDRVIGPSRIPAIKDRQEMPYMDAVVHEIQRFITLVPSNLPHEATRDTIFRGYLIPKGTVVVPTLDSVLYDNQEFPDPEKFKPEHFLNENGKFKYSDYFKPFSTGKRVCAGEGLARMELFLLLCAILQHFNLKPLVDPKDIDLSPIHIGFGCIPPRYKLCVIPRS

CYP2C19 = CYP2C19 (Homo sapiens, UniProt P33261); assay: CYP2C19 inhibition assay, human liver microsomes, omeprazole probe (cocktail); conditions: Table 6
CYP2C19, sequence (P33261 whole entry): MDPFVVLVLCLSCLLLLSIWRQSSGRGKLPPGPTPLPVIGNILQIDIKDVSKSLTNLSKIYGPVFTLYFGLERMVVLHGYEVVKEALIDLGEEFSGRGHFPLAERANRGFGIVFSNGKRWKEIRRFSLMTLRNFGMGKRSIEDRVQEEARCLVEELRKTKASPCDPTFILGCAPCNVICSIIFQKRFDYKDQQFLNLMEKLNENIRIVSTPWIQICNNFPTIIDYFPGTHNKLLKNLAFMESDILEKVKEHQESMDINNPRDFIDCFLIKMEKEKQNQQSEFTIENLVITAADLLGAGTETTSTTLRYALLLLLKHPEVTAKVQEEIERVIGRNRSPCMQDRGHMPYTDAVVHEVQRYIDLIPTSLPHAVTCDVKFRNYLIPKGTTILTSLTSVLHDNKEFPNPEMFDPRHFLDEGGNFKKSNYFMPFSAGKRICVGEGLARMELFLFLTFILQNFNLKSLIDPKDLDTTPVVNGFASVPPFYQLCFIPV

CYP1A2 = target: T4, CYP1A2 (Homo sapiens, UniProt P05177); conditions: both, microsomes, pH 7.4
T4 sequence (P05177 1-516): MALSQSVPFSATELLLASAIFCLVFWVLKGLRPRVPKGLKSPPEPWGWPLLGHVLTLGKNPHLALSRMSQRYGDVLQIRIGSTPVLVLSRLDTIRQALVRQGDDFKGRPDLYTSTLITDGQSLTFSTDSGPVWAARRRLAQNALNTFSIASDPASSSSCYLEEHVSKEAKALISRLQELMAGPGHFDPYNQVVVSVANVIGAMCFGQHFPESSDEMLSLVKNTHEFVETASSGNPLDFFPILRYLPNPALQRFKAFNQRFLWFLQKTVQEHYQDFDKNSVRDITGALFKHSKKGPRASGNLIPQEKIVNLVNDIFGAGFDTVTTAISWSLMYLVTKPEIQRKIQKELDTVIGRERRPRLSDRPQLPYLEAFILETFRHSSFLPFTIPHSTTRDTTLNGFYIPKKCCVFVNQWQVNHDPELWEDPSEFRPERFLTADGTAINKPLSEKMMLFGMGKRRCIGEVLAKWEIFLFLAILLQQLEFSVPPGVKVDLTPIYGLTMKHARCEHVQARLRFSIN

CYP2C9 = CYP2C9 (Homo sapiens, UniProt P11712); assay: CYP2C9 inhibition assay, human liver microsomes, diclofenac probe (cocktail); conditions: Table 6
CYP2C9, sequence (P11712 whole entry): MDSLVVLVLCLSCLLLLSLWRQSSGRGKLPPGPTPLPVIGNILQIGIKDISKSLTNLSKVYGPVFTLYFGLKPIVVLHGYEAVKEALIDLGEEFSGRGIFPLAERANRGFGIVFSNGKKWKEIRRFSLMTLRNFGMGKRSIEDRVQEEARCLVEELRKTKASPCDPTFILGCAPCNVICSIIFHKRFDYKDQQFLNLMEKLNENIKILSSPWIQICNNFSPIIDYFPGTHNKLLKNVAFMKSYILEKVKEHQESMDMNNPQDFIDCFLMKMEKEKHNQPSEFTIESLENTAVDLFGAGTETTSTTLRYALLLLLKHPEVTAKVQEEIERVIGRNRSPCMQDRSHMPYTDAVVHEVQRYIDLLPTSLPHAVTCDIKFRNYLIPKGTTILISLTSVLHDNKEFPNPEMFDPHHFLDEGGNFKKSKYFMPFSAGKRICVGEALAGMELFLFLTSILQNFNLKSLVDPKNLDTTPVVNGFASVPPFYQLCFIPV

CYP2D6 = CYP2D6 (Homo sapiens, UniProt P10635); assay: CYP2D6 inhibition assay, human liver microsomes, dextromethorphan probe (cocktail); conditions: Table 6
CYP2D6, sequence (P10635 whole entry): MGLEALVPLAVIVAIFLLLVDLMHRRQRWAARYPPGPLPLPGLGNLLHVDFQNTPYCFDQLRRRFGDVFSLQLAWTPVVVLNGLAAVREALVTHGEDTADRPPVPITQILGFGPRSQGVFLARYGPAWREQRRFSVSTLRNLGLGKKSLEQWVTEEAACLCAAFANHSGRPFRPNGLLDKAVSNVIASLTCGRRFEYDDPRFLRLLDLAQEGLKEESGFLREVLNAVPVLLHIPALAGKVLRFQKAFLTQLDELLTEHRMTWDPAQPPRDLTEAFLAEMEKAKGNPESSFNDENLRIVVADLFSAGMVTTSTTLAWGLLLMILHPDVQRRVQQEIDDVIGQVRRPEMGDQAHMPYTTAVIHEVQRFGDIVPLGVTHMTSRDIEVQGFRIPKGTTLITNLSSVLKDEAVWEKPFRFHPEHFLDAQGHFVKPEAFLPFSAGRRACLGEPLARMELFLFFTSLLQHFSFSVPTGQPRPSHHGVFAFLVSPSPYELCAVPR

CYP2C8 = target: T5, CYP2C8 (Homo sapiens, UniProt P10632); conditions: Table 6
T5 sequence (P10632 1-490): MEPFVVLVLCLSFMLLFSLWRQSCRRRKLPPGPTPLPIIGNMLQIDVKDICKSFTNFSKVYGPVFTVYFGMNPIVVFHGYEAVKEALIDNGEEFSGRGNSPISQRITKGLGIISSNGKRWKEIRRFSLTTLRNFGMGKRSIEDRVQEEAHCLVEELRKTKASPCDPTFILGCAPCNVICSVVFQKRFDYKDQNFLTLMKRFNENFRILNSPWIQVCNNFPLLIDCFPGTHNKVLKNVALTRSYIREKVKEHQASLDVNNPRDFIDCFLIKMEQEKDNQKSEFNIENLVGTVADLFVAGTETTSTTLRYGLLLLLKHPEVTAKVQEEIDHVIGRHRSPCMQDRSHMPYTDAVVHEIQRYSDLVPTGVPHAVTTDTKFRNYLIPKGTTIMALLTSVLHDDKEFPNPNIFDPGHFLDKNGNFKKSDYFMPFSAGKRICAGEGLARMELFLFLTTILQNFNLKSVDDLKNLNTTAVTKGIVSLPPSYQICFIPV

In the case of `Cc1ccncc1C#CCN` [Compound C, 3-(4-methylpyridin-3-yl)prop-2-yn-1-amine], the pIC50 (UGT2B10) was > 4.22, the IC50 (UGT2B10) was 58 µM and the pIC50 (CYP2A6 [1]) was 7.26. The pIC50 (CYP2A6 [2]) was > 6.00, the “T1/2 (min) in human liver microsomes” value (in vitro) was 8.4 min and the “half-life (T1/2) in human liver microsomes” value (in vitro) was “less than 25 minutes”.
For `Cc1cncc(C#CCN)c1` [Compound D, 3-(5-methylpyridin-3-yl)prop-2-yn-1-amine], the pIC50 (UGT2B10) was < 3.00, the IC50 (UGT2B10) was > 1000 µM and the IC50 (CYP2A6 [3]) was 10 µM.
In the case of `Cc1ncccc1C#CCN` [Compound F, 3-(2-methylpyridin-3-yl)prop-2-yn-1-amine], the IC50 (UGT2B10; Table 9, pooled human liver microsomes, nicotine 500 μM) was 286 µM and the IC50 (CYP2A6 [2]) was > 10 µM.
With `CCc1ccncc1C#CCN` [Compound H, 3-(4-ethylpyridin-3-yl)prop-2-yn-1-amine] the pIC50 (UGT2B10) was < 3.00, the IC50 (UGT2B10) was > 1000 µM and the pIC50 (CYP2A6 [1]) was 6.08. For the same compound, the pIC50 (CYP2A6 [2]) was > 6.00, the “T1/2 (min) in human liver microsomes” value (in vitro) was 9.8 min and the “half-life (T1/2) in human liver microsomes” value (in vitro) was “less than 25 minutes”.
In the case of `NCC#Cc1cnccc1Cl` [Compound L, 3-(4-chloropyridin-3-yl)prop-2-yn-1-amine Dihydrochloride], the “IC50 ratio CYPhepatic/CYP2A6 against all hepatic CYP enzymes tested” value [4] was > 25, the “IC50 ratio CYP2B6/CYP2A6” value (CYP2B6) was 24 and the “IC50 fold lower than that observed for the reference agent” value (CYP2A6 [1]; CYP2A6) was 1.2 fold. The “IC50 ratio CYP2E1/CYP2A6” value (CYP2E1) was 10, the IC50 (CYP2A6 [2]) was 0.13 µM and the pIC50 (CYP2A6 [2]; human liver microsomes) was > 6.00. The “IC50 ratio CYP2C19/CYP2A6” value (CYP2C19) was 61, the “IC50 ratio CYP1A2/CYP2A6” value (CYP1A2) was 33 and the “IC50 ratio CYP2C9/CYP2A6” value (CYP2C9) was >385. The half-life at 10 μM (in vitro; pH 7.4, T1/2 (min) in human liver microsomes) was 28 min, the “IC50 ratio CYP2D6/CYP2A6” value (CYP2D6) was 29 and the “IC50 ratio CYP2C8/CYP2A6” value (CYP2C8) was >192.
For `NCC#Cc1cnccc1-c1ccco1` [Compound M, 3-(4-Furan-2-yl-pyridin-3-yl)-prop-2-ynylamine Dihydrochloride], the pIC50 (CYP2A6 [1]) was 6.25 and the pIC50 (CYP2A6 [2]; human liver microsomes) was > 6.00.
With `NCC#Cc1cnccc1-c1ccncc1` [Compound P, 3-([4,4′-Bipyridin]-3′-yl)prop-2-yn-1-amine Trihydrochloride] the pIC50 (CYP2A6 [1]) was 5.44, the pIC50 (CYP2A6 [2]; human liver microsomes) was > 5.00 and the “T1/2 (min) in human liver microsomes” value (in vitro; 10 μM) was 36 min.
For `NCC#Cc1cnccc1-c1cncnc1` [Compound Q, 3-(4-(Pyrimidin-5-yl)pyridin-3-yl)prop-2-yn-1-amine Trihydrochloride], the pIC50 (CYP2A6 [1]) was 5.57, the pIC50 (CYP2A6 [2]; human liver microsomes) was > 5.00 and the “T1/2 (min) in human liver microsomes” value (in vitro; 10 μM) was >120 min. The half-life at 10 μM (in vitro; pH 7.4, half-life (T1/2) in human liver microsomes) was > 90 min.
